Results on four molecules are retold here after patent US8961759B2, “Device and method for mitochondrial membrane potential assessment” (priority 2011, dated 2015).

Data set [1] concerns human mitochondria (Heb7A). The experiment in a line: Mitochondrial membrane potential assay with sensor device 1000, substrates and inhibitors added (FIG. 12). The note with it: isolated Heb7A mitochondria in respiration buffer, about 10 μM TPP+, sequential additions. The class given is cell-based. The protocol: The voltmeter was linked to the computer via a GPIB interface (National Instrument, GPIB-USB-HS) for data communication. The voltage signal from the voltmeter was acquired using Labview software, so that simultaneous monitoring of the mitochondrial membrane potential could be achieved.
The evaluation of the mitochondrial membrane potential was performed with human mitochondria (Heb7A) in respiration buffer (225 mM mannitol, 75 mM sucrose, 10 mM KCl, 10 mM Tris-HCl, 5 mM KH2PO4, pH 7.2). The measurements were repeated 4 times with freshly prepared mitochondria to confirm the performance and the reproducibility of the sensor. […] 25 ng of isolated mitochondria in 85 μL was used for the test resulting in a final concentration of 0.29 ng/μL.
FIG. 11 illustrates an image of a complete sensor device 1000 showing the reference electrode 1015 and working electrode 1016 with arrows. The sensing chamber was filled with an initial volume of 71 μL respiration buffer. Once the plot baselined to zero, a 100 μM TPP^+Cl^− solution was added to provide a working concentration. The working concentration of TPP^+ was kept at about 10 μM to prevent inhibition of respiration. After stabilization, isolated mitochondria (5 ng μL/1) were added to the sensing chamber 1011.

For data set [2] the following is noted: value given for Equation 3; cited from earlier work.
For data set [3] the following is noted: compared with DDA+; cited from earlier work.

Molecules are shown by their SMILES.

Consider `C=C(C)[C@H]1Cc2c(ccc3c2O[C@@H]2COc4cc(OC)c(OC)cc4[C@@H]2C3=O)O1` [Rot], for which the “change in the magnitude of ΔΨm after addition” value in data set [1] is reported as “slow decline in the magnitude of ΔΨm”.
As to `c1ccc([P+](c2ccccc2)(c2ccccc2)c2ccccc2)cc1` [TPP^+, tetraphenylphosphonium], the “partition coefficient, binding to the external face of the inner membrane (Ko)” value in data set [2] was 14.3 µL/mg. Besides, the “diffusion coefficient through mitochondrial membranes relative to other cations such as DDA+” value in data set [3] is reported as 15 times faster.
As for `O=C(O)CC(=O)O` [malonate], in data set [1], the “change in the magnitude of ΔΨm after addition” value is reported as “slow decrease in the magnitude of ΔΨm”.
Same read-out and setting: to `O=C(O)CCC(=O)O` [succinate] belongs “increase the magnitude of ΔΨm”.
